The record followed here is US8501809B2, “Inhibitors of α4 mediated cell adhesion” (Mitsubishi Tanabe Pharma Corporation, priority 2000, dated 2013).

Structures are written as SMILES.

Regarding `CCOCc1cc(OC)c(-c2ccc(C[C@H](NC(=O)c3c(Cl)cccc3Cl)C(=O)OCC)cc2)c(OC)c1` [Example 1, N-(2,6-Dichlorobenzoyl)-4-(2,6-dimethoxy-4-ethoxymethylphenyl)-L-phenylalanine ethyl ester], the melting point – broadly, the temperature of the solid-liquid transition – fell in the range of 91 to 94 °C. `CCOCc1cc(OC)c(-c2ccc(C[C@H](NC(=O)c3c(Cl)cccc3Cl)C(=O)O)cc2)c(OC)c1` [Example 3, N-(2,6-Dichlorobenzoyl)-4-(2,6-dimethoxy-4-ethoxymethylphenyl)-L-phenylalanine] showed a melting point of 196 to 198 °C. As for `COCc1cc(OC)c(-c2ccc(C[C@H](NC(=O)c3c(Cl)cccc3Cl)C(=O)O)cc2)c(OC)c1` [Example 5, N-(2,6-Dichlorobenzoyl)-4-(2,6-dimethoxy-4-methoxymethylphenyl)-L-phenylalanine], the melting point was 232 to 235 °C.

As to `CCCOCc1cc(OC)c(-c2ccc(C[C@H](NC(=O)c3c(Cl)cccc3Cl)C(=O)O)cc2)c(OC)c1` [Example 7, N-(2,6-Dichlorobenzoyl)-4-(2,6-dimethoxy-4-n-propoxymethylphenyl)-L-phenylalanine], the melting point was 183 to 186 °C. `CCOCc1cc(OC)c(-c2ccc(C[C@H](NC(=O)c3c(F)cccc3F)C(=O)OCC)cc2)c(OC)c1` [Example 10, N-(2,6-Difluorobenzoyl)-4-(2,6-dimethoxy-4-ethoxymethylphenyl)-L-phenylalanine ethyl ester]: the melting point lay in the range of 87 to 89 °C. `CCOCc1cc(OC)c(-c2ccc(C[C@H](NC(=O)c3c(F)cccc3Cl)C(=O)O)cc2)c(OC)c1` [Example 20, N-(2-Chloro-6-fluorobenzoyl)-4-(2,6-dimethoxy-4-ethoxymethylphenyl)-L-phenylalanine] yielded a melting point of 182 to 184 °C.

For the molecule `COCc1cc(OC)c(-c2ccc(C[C@H](NC(=O)c3c(F)cccc3Cl)C(=O)O)cc2)c(OC)c1` [Example 23, N-(2-Chloro-6-fluorobenzoyl)-4-(2,6-dimethoxy-4-methoxymethylphenyl)-L-phenylalanine], the melting point was in the range of 170 to 175 °C.

`CCOCCc1cc(OC)c(-c2ccc(C[C@H](NC(=O)c3c(F)cccc3F)C(=O)O)cc2)c(OC)c1` [Example 31, N-(2,6-Difluorobenzoyl)-4-[2,6-dimethoxy-4-(2-ethoxyethyl)phenyl]-L-phenylalanine]: the melting point fell in the range of 63 to 70 °C.
